Laboratory results as given in patent publication US20220313651A1, “INHIBITORS OF ZIKA VIRUS INFECTION” (priority 2019, published 2022).
Entries after “also recorded” stand apart in the source; their conditions may differ.

How the values were obtained:
[1] = test system: nine additional ZIKV strains; experiment: Plaque reduction inhibition assay, nine additional ZIKV strains taken together; assay type: cell-based; settings: Zika virus, Vero C1008; range over nine additional strains, Vero E6 cells; read-out: IC50 values against all nine ZIKV strains tested
Experimental: A plaque reduction inhibition assay was carried out to measure the inhibitory activity of Z-medicaments against infections of ZIKV and DENV. […] The compound-virus mixtures were then transferred to Vero E6 cells (10^5/well) and incubated at 37° C. for 1 h.
The identified Z-medicaments were further studied for their broad-spectrum activity against nine additional ZIKV strains, including those isolated from different hosts, namely humans, mosquitos, and rhesus macaques, at different time periods (1947-2016) in different countries, including Mexico, Panama, Columbia, Honduras, Puerto Rico, Thailand, Nigeria, and Uganda.

[2] = Safety of ST087010 in pregnant Ifnar1-/- mice and their pups; assay type: in vivo
Experimental: FIG. 10A depicts weight changes of pregnant mothers at prenatal and postnatal time points and FIG. 10B depicts weight changes of pups at different postnatal time points. Alanine aminotransferase (ALT) (FIG. 10C) and creatinine (FIG. 10D) levels in sera of pregnant mice were measured by ALT assay and Creatinine assay, respectively, before and 4 h, 1, 3 and 5 days post-last injection of ST087010 or DMSO control. Haematoxylin and eosin (H&E) staining of tissues (FIG. 10E), including liver, spleen, kidney, and brain, from ST087010 or DMSO-treated mothers and their pups. Scale bar, 50 μm.
ST087010 was detected for its safety profiles in pregnant Ifnar1^−/− mice and their fetuses. Briefly, groups of 5 pregnant mice (8-12-week-old, E12-14) were i.p. injected with ST087010 (20 or 40 mg/kg of body weight), or DMSO (control), daily for 4 continual days. […] Sera collected before and 4 h, 1, 3 and 5 days after last injection were measured for ALT and creatinine levels using ALT and Creatinine Assay kits. Two mothers and their pups (at 3-week-old) were sacrificed, and their liver, spleen, kidney, and brain tissues were sectioned, and assessed for histopathological changes by H&E staining.

DENV-2 human strain V594 = experiment: DENV-2 infection in Ifnar1-/- mice, viral titers by flow cytometry; assay type: in vivo; settings: 20 mg/kg i.p. 12 h before and 6, 24, 48 h after infection; DENV-2 V594 2×10^6 PFU; 3 dpi; vs gossypol and DMSO
From the text: FIG. 11A is a schematic diagram of experimental procedures. […] FIG. 11B depicts representative images of DENV titers in brain, kidney, heart, and sera analyzed by flow cytometry at 3 dpi. C6/36 cells with or without DENV-2 infection were used as positive and negative controls, respectively. The percentage of infected cells to the total number of cells is shown in each figure. FIG. 11C depicts the detection of DENV titers in challenged mouse tissues and sera at 3 dpi. […] The data are presented as mean±s.e.m of duplicate wells (n=2). The experiments were repeated twice with similar results.
ST087010 was evaluated for protection against DENV-2 infection in susceptible Ifnar1^−/− mice. […] Three days after infection, sera and tissues, including brain, kidney, and heart, were collected, and detected for DENV infection using a flow cytometry assay (as described below). […] DENV titers in tissues or sera were determined from ˜20 mg of tissue, or 25 μl of sera, and used for subsequent flow cytometry analysis.
A flow cytometry assay was carried out to analyze DENV-2 titers in the infected mouse tissue supernatants and sera collected above. […] Viral titers (infectious units/ml or infectious units/g) were calculated using the formula: ((% of infected cells)×(total number of cells)×(dilution factor))/(amount of inoculum added to cells). […]

ZIKV NS2B-NS3 protein = target: T1, ZIKV NS2B-NS3 protein (Zika virus, UniProt Q32ZE1); experiment: SPR binding to ZIKV NS2B-NS3 protein; settings: 1:1 binding model, read-out: Binding affinity (KD) to ZIKV NS2B-NS3 protein
T1 construct: 49-97) and NS2 protein (residues 1-185) through a covalent; made in house; host or cells: E. coli
Experimental: The interactions between the Z-medicaments and ZIKV full-length E or NS2B-NS3 protease were analyzed at 25° C. using the Biacore T200 system. Briefly, ZIKV E or NS2B-NS3 protein was immobilized on a sensor chip (CM5) using the Amine Coupling Kit. The disclosed Z-medicaments at various concentrations were subsequently injected as analytes, and PBS-P (20 mM phosphate buffer containing 2.7 mM KCl, 137 mM NaCl, and 0.05% surfactant P20, pH 7.4) was used as the running buffer. The data were analyzed using Biacore evaluation software (T200 version 1.0), and the curve was fitted with a 1:1 binding model.
Briefly, ZIKV EDIII protein or NS2B-NS3 protein were immobilized on a sensor chip (CM5) using Amine Coupling Kit. […] Biacore BK evaluation software (version 1.1) was applied to analyze the data, and the curve was fitted with a 1:1 binding model.

Row | SMILES | IC50 [1] | Serum ALT and creatinine levels vs DMSO-treated mice, low dose ([2]; 20 mg/kg) | Serum ALT and creatinine levels vs DMSO-treated mice, high dose ([2]; 40 mg/kg, 1 day after injection, elevations transient) | Histopathology of liver, spleen, kidney and brain, mothers and pups ([2]; 20 or 40 mg/kg, vs DMSO) | ALT and creatinine levels in sera, before vs after injection ([2]; 20 or 40 mg/kg, before injection and 4 h, 3 or 5 days after last injection) | DENV-2 viral titer (number of infected cells) in brain, kidney, heart and sera (DENV-2 human strain V594) | Kd (ZIKV NS2B-NS3 protein)
1 | Cc1cc2c(C(C)C)c(O)c(O)c(C=O)c2c(O)c1-c1c(C)cc2c(C(C)C)c(O)c(O)c(C=O)c2c1O [Gossypol, gossypol] | 0.21 to 4.31 µM | – | – | – | – | – | –
2 | Cc1cc2c(C(C)C)c(O)c(O)c(/C=N/n3c(=O)[nH][nH]c3=O)c2c(O)c1-c1c(C)cc2c(C(C)C)c(O)c(O)c(/C=N/n3c(=O)[nH][nH]c3=O)c2c1O [ST087010] | – | no significant difference | significantly different | no abnormal pathological changes; also recorded: no inflammation or cell infiltration | no significant differences | significantly reduced number of infected cells | 19.9 µM
